Experimental data as given in publication PMC1968247 (British Journal of Cancer, 1993).
Read-outs that look alike come from different tables or passages of the source.

How the values were obtained:
[1] = tested on: MAC 15A ascites tumour; assay: Anti-tumour activity against MAC 15A (median survival time); assay type: in vivo, NMRI mice; settings: 60 mg kg-1 ip
Description: (§1) Br. J. Cancer (1993), 67, 441 446 t? […] Bibby Clinical Oncology Unit, University of Bradford, West Yorkshire, BD7 JDP, UK. […] In vivo anti-tumour activity was examined against three transplantable adenocarcinomas of the mouse colon and in vivo bone marrow toxicity was assessed using a spleen colony forming unit assay. The pharmacokinetic behaviour of the drug in vivo and drug stability in vitro was analysed by gas chromatography with electron capture detection. […] Clinical responses to cytotoxic agents have been largely restricted to the haematological malignancies while the majority of human solid tumours have remained refractory to chemotherapy (Marsoni et al., 1987). […] However, their clinical usefulness has been limited by non-selective host toxicity, particularly myelosuppres- sion. The chloroethylnitrosoureas decompose spontaneously in aqueous solution to generate reactive intermediates that are capable of alkylating and carbamoylating nucleophilic targets (Cheng et al., 1972). Alkylation reactions consist of chloroethylations and hydroxyethylations of DNA (Tong et al., 1982). Chloroethylation of 06-guanine with subsequent cross-link formation is considered to be the most important cytotoxic reaction (Lown et al., 1978) while hydroxyethyla- tion reactions are thought to be responsible for their mutagenic and carcinogenic effects (Pelfrene et al., 1976; Swenson et al., 1979). […] In the search for other types of compound that would chloroethylate DNA, a series of 2-haloethylsulphonates was synthesised (Shealy et al., 1983). […] Recently, the NCI has introduced a new disease-orientated screening programme based on the assessment of the in vitro cytotoxicity of a panel of cell lines representing the common clinical forms of human cancers using a colorimetric assay (Boyd, 1989). […] One reason for this discrepancy is that the in vitro tests ignore the potential role played by the pharmacokinetic behaviour and bioavailability of a drug in determining tumour responses in vivo. […] It has been used extensively as part of the pre-clinical evaluation of new anti-cancer agents within the Screening and Pharmacology Group of the EORTC (Bibby et al., 1988b). The feasibility of performing minimal toxicity studies in conjunction with anti-tumour studies has been described (Bibby et al., 1988b). […] Correspondence: A.M. Matthew. Received 6 December 1991; and in revised form 13 October 1992. Br. J. Cancer (1993), 67, 441-446 '?" Macmillan Press Ltd., 1993 442 A.M. MATIHEW et al. ethylating agents with improved therapeutic indices. The assessment of stem cell survival has been recommended to study irreversible cytotoxic bone marrow injury (Schofield, 1986) and this can be performed readily in mice using a spleen colony forming unit assay. […] In vitro activity was assessed against a panel of established murine and human tumour cell lines while in vivo anti-tumour responses were evaluated against an ascitic tumour, MAC 15A, and two solid subcutaneous (sc) tumours, MAC 13 and MAC 26. MAC 13 is relatively nitrosourea-sensitive due to a low level of the repair enzyme 06-alkylguanine-DNA alkyltransferase while MAC 26 is relatively nitrosourea-resistant due to a high repair enzyme level (Lunn et al., 1989). In vivo bone marrow toxicity and pharmacokinetic studies and in vitro drug stability studies were performed in conjunction with the anti-tumour studies. […] Chlorozotocin was dissolved in 10% dimethylsulphoxide (DMSO)/arachis oil. Drug solutions were prepared at an appropriate concentration for the desired in vivo dose to be administered in 0.1 ml per 10 g body weight by intra- peritoneal (ip) or intravenous (iv) injection and for the desired final concentration in vitro to be achieved upon a 1 in 10 dilution. […] Chemosensitivity testing In vitro chemosensitivity was assessed using a modified micro-tetrazolium (MTT) assay (Twenty- man & Luscombe, 1987).

[2] = tested on: MAC 13 tumours; assay: Anti-tumour activity against MAC 13 (tumour weight); assay type: in vivo, NMRI mice; settings: 60 mg kg-1 ip
Description: as §1

[3] = tested on: MAC 26 tumours; settings: for Tumour growth delay: MAC 26; for Survivors: MAC 26 bearers
Description: as §1

[4] = tested on: bone marrow; settings: 24 h
Description: as §1

[5] = Maximum tolerated dose, full dose range to the point of toxicity; settings: NMRI, mouse, in vivo, ip
Description: Br. J. Cancer (1993), 67, 441 446 t? […] Bibby Clinical Oncology Unit, University of Bradford, West Yorkshire, BD7 JDP, UK. […] In vivo anti-tumour activity was examined against three transplantable adenocarcinomas of the mouse colon and in vivo bone marrow toxicity was assessed using a spleen colony forming unit assay. The pharmacokinetic behaviour of the drug in vivo and drug stability in vitro was analysed by gas chromatography with electron capture detection. […] Clinical responses to cytotoxic agents have been largely restricted to the haematological malignancies while the majority of human solid tumours have remained refractory to chemotherapy (Marsoni et al., 1987). […] However, their clinical usefulness has been limited by non-selective host toxicity, particularly myelosuppres- sion. The chloroethylnitrosoureas decompose spontaneously in aqueous solution to generate reactive intermediates that are capable of alkylating and carbamoylating nucleophilic targets (Cheng et al., 1972). Alkylation reactions consist of chloroethylations and hydroxyethylations of DNA (Tong et al., 1982). Chloroethylation of 06-guanine with subsequent cross-link formation is considered to be the most important cytotoxic reaction (Lown et al., 1978) while hydroxyethyla- tion reactions are thought to be responsible for their mutagenic and carcinogenic effects (Pelfrene et al., 1976; Swenson et al., 1979). […] The assessment of stem cell survival has been recommended to study irreversible cytotoxic bone marrow injury (Schofield, 1986) and this can be performed readily in mice using a spleen colony forming unit assay. […] In vitro activity was assessed against a panel of established murine and human tumour cell lines while in vivo anti-tumour responses were evaluated against an ascitic tumour, MAC 15A, and two solid subcutaneous (sc) tumours, MAC 13 and MAC 26. […] Chemosensitivity testing In vitro chemosensitivity was assessed using a modified micro-tetrazolium (MTT) assay (Twenty- man & Luscombe, 1987).

With `O=NN(CCCl)C(=O)N[C@H]1C(O)O[C@H](CO)[C@@H](O)[C@@H]1O` (stereo partly drawn) [Chlorozotocin, reference compound] the T/C% [1] was 288%, the “% Tumour weight inhibition” value [2] was 59.2% and the Tumour growth delay ([3]; 60 mg kg-1 ip) was 0 days. The Tumour growth delay ([3]; 80 mg kg-1 ip) was “Toxic”, the Survivors ([3]; 60 mg kg-1 ip) was 9/9 and the Survivors ([3]; 80 mg kg-1 ip) was 3/9. It also gave a Survival fraction ([4]; 15 mg kg-1 ip) of 0.86, a Survival fraction ([4]; 30 mg kg-1 ip) of 0.80 and an MTD [5] of 60 mg/kg.
